Consider one compound from patent US10877036B2, “Biosensor based on Gβγ-interacting proteins to monitor G-protein activation” (priority 2014, dated 2020).

Read-outs that look alike come from different tables or passages of the source.

Holding throughout (format): cell-based
Assay [1] has as its target T1, TPαR (Homo sapiens, UniProt P21731).
T1 construct: host or cells: HEK293
T1 sequence (P21731 1-343): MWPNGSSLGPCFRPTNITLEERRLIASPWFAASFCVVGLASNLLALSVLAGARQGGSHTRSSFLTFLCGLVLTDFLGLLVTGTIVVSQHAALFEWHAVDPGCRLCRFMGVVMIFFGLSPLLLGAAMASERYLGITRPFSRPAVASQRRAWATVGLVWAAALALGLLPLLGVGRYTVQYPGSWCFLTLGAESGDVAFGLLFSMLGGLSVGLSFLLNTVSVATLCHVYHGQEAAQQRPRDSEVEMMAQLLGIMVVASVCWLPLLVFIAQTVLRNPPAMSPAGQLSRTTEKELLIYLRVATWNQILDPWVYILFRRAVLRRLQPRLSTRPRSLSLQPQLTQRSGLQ
Description: Polycistronic vector biosensor (GRK2-GFP, Rluc-Gγ5, Gβ1) co-transfected with TPαR and Gα11. As to conditions: FIG. 11C. From the text: Expression vectors: Biosensor constructs. Rluc-Gγ5 and GFP-Gγ: Plasmid encoding the fusion proteins Rluc-Gy1 to Gγ13 and GFP1O-Gγ5 were was obtained by PCR amplification of the Gγ coding sequences which were then fused in frame at its N-terminus to the humanized Renilla luciferase II (hRlucII) sequence (a variant of the hRluc previously reported (Leduc, Breton et al. 2009), SEQ ID NO:39) into pcDNA3.1 vector (linker sequence: GSAGT, SEQ ID NO: 33), or to the GFP10 (a variant form of the green fluorescent protein (GFP) previously reported (Mercier, Salahpour et al. 2002, SEQ ID NO:38). GRK2-GFP and GRK3-GFP: GRK2-GFP, GRK3-GFP, GRK2 Cterm (SEQ ID NO:50)-GFP, GRK3 Cterm (SEQ ID NO:51)-GFP were generated by PCR amplification of GRK2 and GRK3, which were then fused at their C-terminus to the GFP10 into pcDNA3.1 Zeo(+) vector, generating a linker of 11 amino acid residues between the GRK and the GFP10 protein (linker sequence: GSAGTGKLPAT, SEQ ID NO: 34). GFP-GRK2 and GFP-GRK3: […], GFP-GRK2 Cterm (SEQ ID NO:50), GFP-GRK3 Cterm (SEQ ID NO:51) were generated by PCR amplification of GRK2 and GRK3, which were then fused at their N-terminus to the GFP10 (SEQ ID NO:38) into pcDNA3.1 Zeo (+) vector, generating a linker of 7 amino acid residues between the GRK and the GFP10 protein (linker sequence: GSAGTGG, SEQ ID NO:52). […]

The target in assay [2] is T2, thromboxane A2 receptor (TPαR) (Homo sapiens, UniProt P21731).
T2 construct: host or cells: HEK293
T2 sequence (P21731 1-343): T1 sequence (P21731 1-343)
The assay can be described thus: βγIP-based BRET biosensor (GRK2-GFP/Rluc-Gγ5/Gβ1 plus indicated Gα), agonist activation of TPαR in HEK293 cells. The following applies: read-out: potency of G-protein activation (dose-response curve). As to the method:
Cell culture and transfections. Human embryonic kidney 293 (HEK293) cells were maintained in Dulbecco's Modified Eagle's Medium (DMEM) supplemented with 10% fetal bovine serum, 100 unit/ml penicillin/streptomycin at 37° C. in a humidified atmosphere with 5% CO2. […]
BRET assays in living cells. […] BRET values were then collected using a Mithras™ LB940 Multimode Microplate Reader or a TRISTAR® LB942 Multimode Microplate Reader, equipped with the following filters: 400 nm±70 nm (energy donor) and 515 nm±20 nm (energy acceptor). BRET values were determined by calculating the ratio of the light emitted by GFP (515 nm) over the light emitted by the Rluc (400 nm). To determine the % of activation (Stim as % of basal), BRET values obtained for the agonist treated cells where expressed as a percentage of the BRET values obtained with the corresponding cells treated with vehicle.
Kinetics experiments. BRET assays were performed as described previously, except that BRET readings were collected at regular intervals, 5 min after coelenterazine addition, while ligands and vehicle were injected to the cells after 30 sec of BRET measurements.
On the technique in general: In BRET a luciferase serves as donor, and the signal depends on an acceptor being close.

Assay [3] deals with T1, TPαR. Description: Rluc protein complementation assay (GRK2-Rluc F1/Rluc F2-Gγ5/Gβ1/Gα11), TPαR in HEK293 cells. As to conditions: Rluc-PCA, FIG. 9B, read-out: EC50 of G11 protein activation (luminescence). On the procedure: Cell culture and transfections. Human embryonic kidney 293 (HEK293) cells were maintained in Dulbecco's Modified Eagle's Medium (DMEM) supplemented with 10% fetal bovine serum, 100 unit/ml penicillin/streptomycin at 37° C. in a humidified atmosphere with 5% CO2. Two days before the experiments, HEK293 cells were transfected with the indicated plasmids using poly-ethylenimine 25-kDa linear (PEI) as a transfecting agent (at a ratio of 3 to 1, PEI/DNA) (Hamdan, Rochdi et al. 2007), and then directly seeded in 96-well plates pre-treated with poly-L-ornithine hydrobromide or Poly-D-Lysine, at a density of 35,000 cells per well (for BRET and PCA assays in living cells), or 6-well plates at a density of 1,000,000 cells per well (for BRET assays on membrane preparations).
Protein complementation assays using RlucII fragments. Cells were washed twice with PBS, followed by Tyrode buffer addition. The cells were then pre-treated with the Rluc substrate, coelenterazine 400a, at a final concentration of 2.5 μM for 30 min at 37° C. The different ligands or vehicle were added for an additional 10 min. Luminescence values were then collected using a Mithras™ LB940 Multimode Microplate Reader, without any filters.

Regarding `CCCCC[C@H](O)/C=C/[C@@H]1[C@@H](C/C=C\CCCC(=O)O)[C@H]2CO[C@@H]1C2` [U-46619], the EC50 was found to be 4.3 nM in assay [1]; 0.5 nM in assay [2] (G-protein printed as Gβ, FIG. 3C); 6.6 nM in assay [2] (Gα15/16, FIG. 3C); 8.4 nM in assay [3].
